The experiment deals with Plasma kallikrein (Homo sapiens, UniProt P03952). Nature of the experiment: Evaluation of the Inhibition of PKK Using an Endpoint Assay. As for the experimental part:
Subsequently, PPACK II (Calbiochem) was added as a stop solution to achieve a final concentration of 1 μM and fluorescence was measured using an Envision Reader (PerkinElmer) with the wavelength excitation setting of 355 nm and the wavelength emission setting of 460 nm.

The record followed here is BindingDB's records for patent US12091399 (Boehringer Ingelheim International, 2024).

Chain of Plasma kallikrein (P03952 20-390 limits assumed): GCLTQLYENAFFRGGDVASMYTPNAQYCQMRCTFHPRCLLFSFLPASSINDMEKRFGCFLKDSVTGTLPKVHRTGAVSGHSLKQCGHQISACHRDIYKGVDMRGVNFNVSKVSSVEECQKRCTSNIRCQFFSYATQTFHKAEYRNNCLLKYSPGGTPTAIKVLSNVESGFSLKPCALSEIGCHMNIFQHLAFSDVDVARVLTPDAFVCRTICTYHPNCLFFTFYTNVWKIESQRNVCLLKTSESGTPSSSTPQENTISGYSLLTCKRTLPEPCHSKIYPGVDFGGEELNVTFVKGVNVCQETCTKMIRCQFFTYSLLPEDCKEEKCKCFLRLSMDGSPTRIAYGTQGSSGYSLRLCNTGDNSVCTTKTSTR
Chain of Plasma kallikrein (P03952 391-638 limits assumed): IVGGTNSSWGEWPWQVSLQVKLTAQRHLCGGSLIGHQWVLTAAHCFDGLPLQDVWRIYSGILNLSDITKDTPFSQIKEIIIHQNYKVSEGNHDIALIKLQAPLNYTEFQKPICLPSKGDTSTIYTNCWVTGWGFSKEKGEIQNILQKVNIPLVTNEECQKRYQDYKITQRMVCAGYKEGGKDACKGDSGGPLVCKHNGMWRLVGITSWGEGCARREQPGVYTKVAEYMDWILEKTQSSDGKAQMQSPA

Take `Cc1nc(N2C[C@@H]3[C@@H](N)[C@@H]3C2)ccc1Cn1cc(C(=O)NCc2cc(Cl)ccc2-n2cnnn2)cn1` [US12091399, Example 58]: the IC50 came to 38 nM.
